{"source": "patent US20030068802A1", "about": "“Use of streptococcus pneumoniae acyl carrier protein synthase crystal structure in diagnostics, antimicrobial drug design, and biosensors” (priority 2000, published 2003)", "molecules": {"B1": {"name": "purified AcpS of S. pneumoniae (Streptococcus pneumoniae R6) (protein)", "chain": "MIVGHGIDIEELASIESAVTRHEGFAKRVLTAQEMERFTSLKGRRQIEYLAGRWSAKEAFSKAMGTGISKLGFQDLEVLNNERGAPYFSQAPFSGKIWLSISHTDQFVTASVILEENHES", "notes": "made in house; host or cells: E. coli BL21 (pLysS)/pRBP-19 (pET-11a)"}}, "key": {"[1]": {"biological_target": "T1, purified AcpS of S. pneumoniae (Streptococcus pneumoniae, UniProt P0A2W7)", "T1 construct": "made in house; host or cells: E. coli BL21 (pLysS)/pRBP-19 (pET-11a)", "T1 sequence (P0A2W7 1-120)": "B1 chain", "assay": "HPLC-based AcpS enzyme assay (conversion of apo-ACP to holo-ACP)", "format": "biochemical", "details": "for relative activity as substrate of AcpS: CoA = 100, 1.5 μM apo-ACP, 20 μM CoA or CoA derivative, 19 nM AcpS; for Ki: 3.7 nM AcpS", "method": "(§1) Unless otherwise indicated, reaction mixtures contain 50 mM Tris-HCl, pH 7.0, 10 mM MgCl2, 2.5-50 μM CoA, 0.25-6.0 μM purified apo-ACP of S. pneumoniae, and 3.7 nM purified AcpS of S. pneumoniae, and are incubated at 37° C. for 9 min. Reactions are stopped by the addition of 50 mM EDTA. The formation of holo-ACP is determined by an HPLC or a trichloroacetic acid (TCA) precipitation method (see below). An HPLC-based assay is adapted from the method described previously (Lambalot and Walsh, 1997). This assay monitors the conversion of apo-ACP to holo-ACP. Reaction mixtures (100 μl each) are injected into an analytical HPLC column (Vydac protein C4 reverse-phase; P. J. Cobert Associates, Inc., St. Louis, Mo.) equilibrated with 45% acetonitrile in 0.1% trifluoroacetic acid. The column is eluted with an 8 ml linear gradient of 45-80% acetonitrile. The column elution profiles are monitored at 220 nm. Under these conditions, holo-ACP migrates faster than apo-ACP. The amount of holo-ACP formed is estimated by comparing the peak area of the holo-ACP formed with those of both apo- and holo-ACP.\n(§2) To examine the substrate specificity of AcpS, a variety of CoA derivatives (acetyl-CoA, malonyl-CoA, acetoacetyl-CoA, desulfo-CoA, and dephospho-CoA) are tested. All reaction mixtures contain 1.5 μM apo-ACP, 20 μM CoA or CoA derivative, and 19 nM AcpS, and the formation of holo-ACP is determined by the HPLC method.\nFor the determination of Km and Vmax (kcat) of AcpS for apo-ACP, reaction mixtures (in quadruplicate) contain 20 μM CoA, 0.25 to 100 μM apo-ACP, and 3.7 nM. AcpS. The formation of holo-ACP is measured by the HPLC method or the TCA precipitation method. To determine Km for CoA, the reaction conditions are the same as those described above except that the concentration of apo-ACP is 2.0 μM, and the concentrations of CoA were 5 to 600 μM. […]\nTo evaluate the inhibition of AcpS activity by 3′,5′-ADP with respect to CoA, reaction mixtures contain 1-60 μM 3′,5′-ADP, 2.5-60 μM CoA, 1.0 μM apo-ACP, and 3.7 nM AcpS. To evaluate the inhibition of AcpS activity by 3′,5′-ADP with respect to apo-ACP, reaction mixtures contain 1-60 μM 3′,5′-ADP, 0.5-6.0 μM apo-ACP, 20 μM CoA, and 3.7 nM AcpS. The formation of holo-ACP is analyzed by the HPLC method."}, "[2]": {"biological_target": "T1, purified AcpS of S. pneumoniae", "assay": "Substrate binding to AcpS by gel filtration column chromatography, mass spectrometry and filter binding", "details": "27 μM AcpS, 10 mM MgCl2, 100 μM apo-ACP or 50 μM CoA, room temperature 30 min", "method": "To determine whether AcpS binds directly to apo-ACP or CoA in the absence of the other substrate, a purified AcpS preparation (27 μM) is first mixed with 10 mM MgCl2, and then either 100 μM apo-ACP or 50 μM CoA. The mixture is incubated at room temperature for 30 min and subjected to gel filtration column chromatography (S-75 Superdex) under the conditions described above. The fractions containing the AcpS-apo-ACP complex and unbound apo-ACP are analyzed by SDS-PAGE (16% tricine gels), SYPRO Orange staining, and mass spectrometry.\nThe order of substrate binding to AcpS can be analyzed by determining the binding of CoA and apo-ACP to purified AcpS by gel filtration column chromatography, mass spectrometry, or filter binding assays. If CoA binds to AcpS first and forms an enzyme-substrate complex that is required for the next reaction with apo-ACP, then a stable enzyme-substrate complex should be detectable. […]\nWhether apo-ACP binds to AcpS in the absence of CoA, a mixture of AcpS and apo-ACP (apo-ACP/AcpS=5:1) can be subjected to gel filtration column chromatography and analysis of the column fractions by SDS-PAGE. […] Consistent with the formation of the AcpS-apo-ACP complex, the presence of apo-ACP is also detected in the fractions containing purified AcpS (FIG. 2B). […]"}, "[3]": {"substrate": "CC(C)(COP(=O)(O)OP(=O)(O)OC[C@H]1O[C@@H](n2cnc3c(N)ncnc32)[C@H](O)[C@@H]1OP(=O)(O)O)[C@@H](O)C(=O)NCCC(=O)NCCS", "assay": "HPLC-based AcpS enzyme assay (conversion of apo-ACP to holo-ACP)", "format": "biochemical, Streptococcus pneumoniae", "details": "other: fixed apo-ACP 2 μM, various CoA, HPLC method; pH 7.0; 37.0 °C", "method": "as §1, with “The amount of holo-ACP formed is estimated by comparing the peak area of the holo-ACP formed with those of both apo- and holo-ACP.” left out\nas §2, with “method. […]” for “method.”"}, "[4]": {"substrate": "CC(C)(COP(=O)(O)OP(=O)(O)OC[C@H]1O[C@@H](n2cnc3c(N)ncnc32)[C@H](O)[C@@H]1OP(=O)(O)O)[C@@H](O)C(=O)NCCC(=O)NCCS", "assay": "TCA precipitation AcpS assay ([3H]CoA incorporation into apo-ACP)", "format": "biochemical, Streptococcus pneumoniae", "details": "other: TCA precipitation method", "method": "AcpS activity is also assayed by using a TCA precipitation method (Lambalot and Walsh, 1995). This method measures the incorporation of the 3H-labeled 4′-phospho-pantotheine group from [^3H]CoA into apo-ACP. Reaction conditions are the same as those described for the HPLC assay, except that [^3H]COA (specific activity, 1.5 Ci/mmol, NEN Life Science Products, Boston, Mass.) is used alone or in combination with CoA. Reactions are stopped by the addition of 0.9 ml of cold 10% TCA followed by 37 μg of bovine serum albumin (BSA). Precipitated protein is collected by centrifugation (a microfuge at 14,000 rpm) for 5 min and washed twice with ice-cold 10% TCA. The protein collected is resuspended in 150 μl of 1M Tris base and 0.1% Triton X-100. The resulting suspension (100 μl) is mixed with 2.5 ml of Ready Protein+scintillation fluid (Beckman, Fullerton, Calif.), and counted using an LS 60001C scintillation counter (Beckman).\nFor the determination of Km and Vmax (kcat) of AcpS for apo-ACP, reaction mixtures (in quadruplicate) contain 20 μM CoA, 0.25 to 100 μM apo-ACP, and 3.7 nM. AcpS. The formation of holo-ACP is measured by the HPLC method or the TCA precipitation method. To determine Km for CoA, the reaction conditions are the same as those described above except that the concentration of apo-ACP is 2.0 μM, and the concentrations of CoA were 5 to 600 μM."}, "[5]": {"biological_target": "Streptococcus pneumoniae apo-acyl carrier protein (apo-ACP)"}}}
{"molecule": "CC(=O)SCCNC(=O)CCNC(=O)[C@H](O)C(C)(C)COP(=O)(O)OP(=O)(O)OC[C@H]1O[C@@H](n2cnc3c(N)ncnc32)[C@H](O)[C@@H]1OP(=O)(O)O", "note": "[acetyl-CoA]", "values": [{"measurement": "relative activity as substrate of AcpS", "setting": "[1]", "value": 91}]}
{"molecule": "CC(C)(COP(=O)(O)OP(=O)(O)OC[C@H]1O[C@@H](n2cnc3c(N)ncnc32)[C@H](O)[C@@H]1OP(=O)(O)O)[C@@H](O)C(=O)NCCC(=O)NCCSC(=O)CC(=O)O", "note": "[malonyl-CoA]", "values": [{"measurement": "relative activity as substrate of AcpS", "setting": "[1]", "value": 12}]}
{"molecule": "Nc1ncnc2c1ncn2[C@@H]1O[C@H](COP(=O)(O)O)[C@@H](OP(=O)(O)O)[C@H]1O", "note": "[3′,5′-ADP, 3′,5′-adenosine diphosphate]", "values": [{"measurement": "Ki", "setting": "[1]; inhibition of AcpS activity with respect to CoA, various CoA concentrations, fixed apo-ACP 1.0 μM, Dixon plot FIG. 7C", "value": 6, "unit": "µM"}, {"measurement": "Ki", "setting": "[1]; inhibition of AcpS activity with respect to apo-ACP, various apo-ACP concentrations, fixed CoA 20 μM, Dixon plot FIG. 7D", "value": 2.5, "unit": "µM"}, {"measurement": "pattern of inhibition with respect to CoA (double reciprocal plots)", "setting": "[1]; various CoA, fixed apo-ACP", "value": "simple competitive pattern"}, {"measurement": "pattern of inhibition with respect to apo-ACP (double reciprocal plots)", "setting": "[1]; various apo-ACP, fixed CoA", "value": "linear-mixed pattern"}]}
{"molecule": "CC(C)(COP(=O)(O)OP(=O)(O)OC[C@H]1O[C@@H](n2cnc3c(N)ncnc32)[C@H](O)[C@@H]1OP(=O)(O)O)[C@@H](O)C(=O)NCCC(=O)NCCS", "note": "[CoA, Coenzyme A]", "values": [{"measurement": "relative activity as substrate of AcpS", "setting": "[1]", "value": 100}, {"measurement": "binding to AcpS in the absence of the other substrate", "setting": "[2]", "value": "does not appear to bind"}]}
{"molecule": "CC(=O)CC(=O)SCCNC(=O)CCNC(=O)[C@H](O)C(C)(C)COP(=O)(O)OP(=O)(O)OC[C@H]1O[C@@H](n2cnc3c(N)ncnc32)[C@H](O)[C@@H]1OP(=O)(O)O", "note": "[acetoacetyl-CoA]", "values": [{"measurement": "relative activity as substrate of AcpS", "setting": "[1]", "value": 65}]}
{"molecule": "CC(C)(COP(=O)(O)OP(=O)(O)OC[C@H]1O[C@@H](n2cnc3c(N)ncnc32)[C@H](O)[C@@H]1O)[C@@H](O)C(=O)NCCC(=O)NCCS", "note": "[dephospho-CoA]", "values": [{"measurement": "relative activity as substrate of AcpS", "setting": "[1]", "value": 0}]}
{"molecule": "CCNC(=O)CCNC(=O)[C@H](O)C(C)(C)COP(=O)(O)OP(=O)(O)OC[C@H]1O[C@@H](n2cnc3c(N)ncnc32)[C@H](O)[C@@H]1OP(=O)(O)O", "note": "[desulfo-CoA]", "values": [{"measurement": "relative activity as substrate of AcpS", "setting": "[1]", "value": 76}]}
{"molecule": "B1", "values": [{"measurement": "Km", "setting": "[3]", "value": "11.5 ± 0.9", "unit": "µM"}, {"measurement": "Km", "setting": "[4]", "value": "7.1 ± 0.4", "unit": "µM"}, {"measurement": "Km (for apo-ACP), HPLC assay of holo-ACP formation, high apo-ACP concentrations", "setting": "[5]", "value": "109 ± 6.8", "unit": "µM"}, {"measurement": "Km (for apo-ACP), HPLC assay of holo-ACP formation, low apo-ACP concentrations", "setting": "[5]", "value": 0.5, "unit": "µM"}, {"measurement": "apparent Km for apo-ACP, TCA precipitation assay with [3H]CoA", "setting": "[5]", "value": 1.3, "unit": "µM"}, {"measurement": "fold decrease of affinity (Km) at high versus low apo-ACP concentrations", "setting": "[5]", "value": "approximately 200-fold"}]}
